The values below are quoted from earlier work in paper PMC12394750, “2H-1,4-Benzoxazin-3(4H)-one linked 1,2,3-triazole derivatives and their study on inducing DNA damage in tumor cells” (Frontiers in Pharmacology, 2025).

For one series, the system named is Jurkat cells. Also noted: method as in Pokhodylo et al., 2022. Particulars: ref Pokhodylo et al., 2022; cited from earlier work.
In series [1] the test system is A549 cell. The settings on record: Tummatorn's team, no reference given; read-out: A549 cell proliferation, IC50; cited from earlier work.
In the next series the test system is EGFR. Also on record: method as in Sagam et al., 2024. Particulars: ref Sagam et al., 2024; read-out: EGFR inhibitory activity, IC50; cited from earlier work.
For a further series, the system named is A549 cancer cells. Also on record: method as in Feng et al., 2010. Particulars: ref Feng et al., 2010; cited from earlier work.
The subject of another series is DLD-1 cancer cells. Also noted: method as in Feng et al., 2010. The settings on record: ref Feng et al., 2010; cited from earlier work.
The subject of a further series is MV4-11 cancer cells. Also noted: method as in Feng et al., 2010. Particulars: ref Feng et al., 2010; cited from earlier work.
The target of series [2] is mineralocorticoid receptor. Also noted: method as in Hasui et al., 2011. The settings on record: ref Hasui et al., 2011; read-out: Mineralocorticoid receptor antagonist IC50; cited from earlier work.
Series [3] relates to A549 cell. Also noted: method as in Zhou et al., 2014. Particulars: ref Zhou et al., 2014; read-out: Inhibition of A549 cell proliferation, IC50; cited from earlier work.
The test system of a further series is A549 lung cancer cells. Also noted: method as in Han et al., 2024. The settings on record: ref Han et al., 2024; cited from earlier work.
For the next series, the system named is HeLa cells. Also on record: method as in Nagavelli et al., 2016. Particulars: ref Nagavelli et al., 2016; cited from earlier work.
The test system of another series is MCF-7 cells. Also on record: method as in Nagavelli et al., 2016. The settings on record: ref Nagavelli et al., 2016; cited from earlier work.

Like-named read-outs stand apart in the source and are kept apart here.

With `Cc1c(C(=O)Nc2ccc(SC#N)cc2)nnn1-c1ccc(C(C)C)cc1` [compound 4a], in the series on Jurkat cells, the DNA damage result is listed as “induce DNA damage” and the Mitochondrial membrane potential entry was “reduce mitochondrial membrane potential”.
As for `Fc1ccc2c(c1)C1=Nc3ccc(Br)cc3C1CN2Cc1cn(Cc2cccc(Cl)c2)nn1` (stereo not drawn) [compound 11l], the IC50 with A549 cell [1] is 3010 nM.
`O=C(Cn1nnc(CCN2C(=O)COc3ccccc32)n1)Nc1ccc(Cl)cc1` [compound 12g]: in the series with EGFR, the IC50 is 460 nM.
As to `O=C1COc2ccc(-c3[nH]c(-c4ccc(C(F)(F)F)cc4)nc3-c3ccccc3)cc2N1` [compound 9c], in the series on A549 cancer cells, the “Viability of A549 cancer cells” value is listed as “significantly reduced”. Moreover, the “Viability of DLD-1 cancer cells” value in the series with DLD-1 cancer cells was “significantly reduced”. For the same compound, the “Viability of MV4-11 cancer cells” value in the series with MV4-11 cancer cells is reported as “significantly reduced”.
For the compound `Cc1cc(F)ccc1-n1nc(C(F)(F)F)cc1-c1ccc2c(c1)NC(=O)CO2` [compound 14n], the IC50 in series [2] is 41 nM.
Consider `COc1cc(/C=C/C(=O)c2ccc3c(c2)NC(=O)CO3)cc(OC)c1` [compound 3c], for which the IC50 with A549 cell [3] was 3290 nM.
Consider `C#CCCC(=O)OC1CC2[C@@]3(C)CCC(OC(=O)CCc4cn(CC(=O)OC)nn4)C(C)(C)C3CC[C@@]2(C)[C@]2(C)CCC([C@](C)(O)CCCC(C)(C)OC)C12` (stereo partly drawn) [compound 6a], for which the “Inhibitory activity against A549” value in the series with A549 lung cancer cells is reported as “strong inhibitory activity”.
`COc1cccc(-c2ccc3c(c2)OCC(=O)N3Cc2cn(-c3cc(Cl)cc(Cl)c3)nn2)c1` [compound 5b]: the “Cytotoxicity against HeLa, IC50” value with HeLa cells was 15.38 µg/mL. The “Cytotoxicity against MCF-7, IC50” value in the series on MCF-7 cells is 17.08 µg/mL.
